Assay results as given in US20080221086A1, “Novel Inhibitors of Glutaminyl Cyclase” (PROBIODRUG AG, priority 2006, published 2008).
Read-outs that look alike come from different tables or passages of the source.

Key:
[1] = target: hQC (Homo sapiens, UniProt Q16769); experiment: Fluorometric assay of glutaminyl cyclase (QC) inhibition, H-Gln-βNA or H-Gln-AMC substrate; type: biochemical
Outline: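 Ki values were obtained by fitting progress curves to a competitive-inhibition equation, and the rapid screen used 4 mM inhibitor with substrate at 1 KM. Both readouts coupled pyroglutamyl aminopeptidase at pH 8.0 and 30° C: H-Gln-βNA at 0.2 mM (ex/em 320/410 nm) or H-Gln-AMC (380/460 nm).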

[2] = compound from preparative synthesis, purified by chromatography, fluorescent assay, read-out: IC50 hQC

hQC, sequence (Q16769 29-361): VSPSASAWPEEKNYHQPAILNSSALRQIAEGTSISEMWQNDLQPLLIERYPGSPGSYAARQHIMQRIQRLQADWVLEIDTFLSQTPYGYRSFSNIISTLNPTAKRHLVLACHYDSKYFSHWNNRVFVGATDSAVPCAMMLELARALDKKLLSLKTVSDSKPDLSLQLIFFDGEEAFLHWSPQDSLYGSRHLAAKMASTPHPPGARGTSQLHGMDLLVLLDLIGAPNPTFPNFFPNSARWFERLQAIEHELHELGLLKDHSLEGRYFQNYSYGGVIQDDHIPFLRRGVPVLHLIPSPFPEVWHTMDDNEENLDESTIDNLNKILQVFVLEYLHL

O=C1N/C(=N\C2CCCCC2)C(c2ccc(Br)cc2)N1c1ccc2nc[nH]c2c1 (centres unmarked) [Compound 199, 1-(1H-Benzoimidazol-5-yl)-5-(4-bromo-phenyl)-4-(cyclohexylimino)-imidazolidin-2-one]
IC50 [1, 2]: 23.5 nM | IC50 ([1]; read-out: IC50): 4 nM | melting point: 205 °C

O=C1N/C(=N/Cc2ccccc2)C(c2ccc(Br)cc2)N1c1ccc2[nH]cnc2c1 (centres unmarked) [Compound 216, 1-(1H-Benzoimidazol-5-yl)-4-benzylimino-5-(4-bromo-phenyl)-imidazolidin-2-one]
IC50 [1, 2]: 22 nM | IC50 ([1]; read-out: IC50): 4 nM | melting point: 244 °C

O=C1N/C(=N\C2CCCC2)C(c2ccc3[nH]ccc3c2)N1c1ccc2[nH]cnc2c1 (centres unmarked) [Compound 226, 1-(1H-Benzoimidazol-5-yl)-4-(cyclopentylimino)-5-(1H-indol-5-yl)-imidazolidin-2-one]
IC50 [1, 2]: 34.5 nM | IC50 ([1]; read-out: IC50): 4 nM | melting point: 210 °C

O=C1N/C(=N\C2CCCCC2)C(c2cc3c(cc2Br)OCO3)N1c1ccc2nc[nH]c2c1 (centres unmarked) [Compound 196, 1-(3H-Benzoimidazol-5-yl)-5-(6-bromo-benzo1,3-dioxol-5-yl)-4-cyclohexylimino-imidazolidin-2-one]
IC50 ([1]; read-out: IC50): 4 nM

S=C1N/C(=N\C2CCCC2)C(c2ccc(N3CCCC3)cc2)N1c1ccc2[nH]cnc2c1 (centres unmarked) [Compound 210, 1-(1H-Benzoimidazol-5-yl)-4-cyclopentylimino-5-(4-pyrrolidin-1-yl-phenyl)-imidazolidine-2-thione]
IC50 ([1]; read-out: IC50): 3100 nM

O=C1N/C(=N/CCc2c[nH]c3ccccc23)C(c2ccc(F)cc2)N1CCCn1ccnc1 (centres unmarked) [Compound 63, 5-(4-Fluoro-phenyl)-1-(3-imidazol-1-yl-propyl)-4-2-(1H-indol-3-yl)-ethylimino-imidazolidin-2-one]
IC50 ([1]; read-out: IC50): 3100 nM

O=C1N/C(=N\C(Cc2ccccc2)c2ccccc2)C(c2cccc(Br)c2)N1c1ccc2[nH]cnc2c1 (centres unmarked) [Compound 338, 1-(1H-Benzoimidazol-5-yl)-5-(3-bromo-phenyl)-4-1,2-diphenyl-ethylimino-imidazolidin-2-one]
IC50 ([1]; read-out: IC50): 4 nM

Cc1ccc(C2/C(=N/C3CCCCCC3)NC(=S)N2c2ccc3nc[nH]c3c2)c(C)c1 (centres unmarked) [Compound 344, 1-(3H-Benzoimidazol-5-yl)-4-cycloheptylimino-5-(2,4-dimethyl-phenyl)-imidazolidine-2-thione]
IC50 ([1]; read-out: IC50): 4900 nM

O=C(C/N=C1\NC(=S)N(c2ccc3[nH]cnc3c2)C1c1cc2ccccc2s1)N1CCSCC1 (centres unmarked) [Compound 207, 2-(5-(benzo[b]thiophen-2-yl)-1-(1H-benzo[d]imidazol-5-yl)-2-thioxoimidazolidin-4-ylideneamino)-1-thiomorpholinoethan-one]
IC50 ([1]; read-out: IC50): 4000 nM

O=C1N/C(=N\Cc2ccc(Cl)cc2)C(c2ccccc2Cl)N1CCCn1ccnc1 (centres unmarked) [Compound 21]
IC50 ([1]; read-out: IC50): 7600 nM

CCCC/N=C1\NC(=O)N(CCCn2ccnc2)C1c1cccc(F)c1F (centres unmarked) [Compound 36, 4-Butylimino-5-(2,3-difluoro-phenyl)-1-(3-imidazol-1-ylpropyl)-imidazolidin-2-one]
IC50 ([1]; read-out: IC50): 6700 nM
